Experimental findings from US10556936B2, “Immunogenic proteins and fragments thereof from allergenic mites” (ALK-ABELLÓ A/S, priority 2016, dated 2020) are described below.

This assay relates to HDM-specific T cells expanded from PBMCs of HDM-allergic individuals. As to the kind of experiment: T cell reactivity of peptides: IFN/IL-5 ELISPOT on in vitro expanded HDM-specific T cells. It counts as cell-based, human. Particulars: for SFC/donor: individual peptides 10 μg/mL; for % responder: percentage of donors that produced a response against the peptide, 10 μg/mL. As for the experimental part:
Each sequence of an “L” cluster was aligned separately using the MEGA software tool with ClustalW. Fifteen-mer peptides overlapping by 10 amino acids were generated and the last 15-mer peptide was added when the sequence length was not divisible by 5, 14,783 unique peptides remained.
HLA class II binding predictions optimized for global coverage were performed for the seven class II alleles (HLA-DRB1*03:01, HLA-DRB1*07:01, HLA-DRB1*15:01, HLA-DRB3*01:01, HLA-DRB3*02:02, HLA-DRB4*01:01 and HLA-DRB5*01:01) using the standalone version of the IEDB class II binding prediction tool. The median consensus percentile rank was estimated from the consensus percentile ranks for the seven alleles. Further, peptides with more than ten overlapping amino acids, which appeared because several occurrences of some sequence regions were repeated multiple times in the same sequence, were eliminated (e.g. “[…]” was repeated seven times in one sequence.) Variant peptides were also removed, retaining the better peptide based on the median consensus percentile rank and conservation among the sequences within its respective cluster. Peptides with median consensus percentile rank ≤10.0 and conserved in ≥35% of sequences in the same cluster were finally selected, also including additional selected peptides chosen to maximize DRB1 allele coverage, for a grand total of 2,589 peptides.
Peptides were purchased from Mimotopes (Clayton, Victoria, Australia) or A and A (San Diego, Calif.) as crude material on a small (1-mg) scale. Individual peptides were resuspended in DMSO at a final concentration of 40 mg/mL. Peptide “megapools” of 30-65 peptides/pool were generated. Following lyophilization, each pool was reconstituted in DMSO so that each peptide was present at a concentration of 4 mg/mL. To facilitate deconvolution of positive megapools, each megapool was further broken down in 2-6 “mesopools” (259 mesopools in total), each containing 8-14 peptides. Each mesopool was then deconvoluted to identify individual positive peptides. To avoid dimerization and polymerization of peptides by intra- and intermolecular disulfide bond formation between cysteine residues, this amino acid were in some instances substituted by a serine residue in the peptides. Such peptides are herein marked with an asterisk (*).
PBMCs from European HDM-allergic individuals were recruited in the Copenhagen region (defined by clinical history of allergy to house dust mite and specific IgE to group 1 and group 2 major allergens from Der p and/or Der f and with measured specific IgE (CAP) >0.7 kU/L towards Der p/f 1 or Der p/f 2. In addition, PBMCs from 10 US HDM-allergic individuals were recruited in San Diego (defined by Der p extract IgE titers greater than 0.35 kUA/L). PBMCs were isolated from whole blood by density gradient centrifugation according to manufacturers' instructions (Ficoll-Hypaque, Amersham Biosciences, Uppsala, Sweden). Der p- and Der f-specific extract IgE titers were determined using the ImmunoCAP system (Thermo Fisher, Uppsala, Sweden). In a separate series of experiments, pooled plasma from 10 European and 10 American HDM atopic individuals from the San Diego region, respectively, was utilized to run 2D immunoblots to elucidate IgE and IgG reactivity towards the proteins, which had at least one peptide with positive T cell response.
HDM-specific T cells were expanded in vitro. Briefly, PBMCs from HDM-allergic individuals were stimulated with HDM extract (5 μg/mL) and expanded over 14-17 days with IL-2 (added every 3 days). Cells were harvested on day 14, restimulated with HDM extract (5 μg/mL), individual peptides (10 μg/mL) or peptide pools (5 μg/mL) and screened for […]/IL-5-production by ELISPOT. Criteria for positivity were 100 or 20 spot forming cells (SFCs) per 10^6 PBMCs for peptide pools or single peptides, respectively, p<0.05, and a stimulation index >2.

With “KDSQYLQHFNNAIKQ (Immunogenic fragment) [Peptide 188, fragment of A0023 Der f]”, the SFC/donor came out at 24 SFC/donor and the “% responder” value is 10%.

As to “77 (ANQPISSLKNRLHYR; Immunogenic fragment) [compound 77]”, the SFC/donor stood at 4 SFC/donor and the “% responder” value is recorded as 5%.

In the case of “132 (GKPYYQFIYTTNNML; Immunogenic fragment) [compound 132]”, the SFC/donor is 44 SFC/donor and the “% responder” value turned out to be 15%.

As for “101 (RHYNDQLHYNLHNLY; Immunogenic fragment) [compound 101]”, the SFC/donor amounted to 10 SFC/donor and the “% responder” value was found to be 5%.

Consider “56 (LKKHYADLAARPFFP; Immunogenic fragment) [compound 56]”, for which the SFC/donor is on record as 8 SFC/donor and the “% responder” value is listed as 5%.

As for “138 (YHNLIGLPAMPPFWS; Immunogenic fragment) [compound 138]”, the SFC/donor is 3 SFC/donor and the “% responder” value was found to be 5%.

Consider “93 (QVVQQYHNLIGLPAM; Immunogenic fragment) [compound 93]”, for which the SFC/donor is 11 SFC/donor and the “% responder” value stood at 10%.

As to “119 (RYRFLAHLYTLFYHV; Immunogenic fragment) [compound 119]”, the SFC/donor is 158 SFC/donor and the “% responder” value stood at 10%.

In the case of “100 (TLRHKTLCMTARHYN; Immunogenic fragment) [compound 100]”, the SFC/donor stood at 12 SFC/donor and the “% responder” value amounted to 10%.

As for “112 (PSILNFNLFGVPMIG; Immunogenic fragment) [compound 112]”, the SFC/donor stood at 4 SFC/donor and the “% responder” value is 5%.

As for “130 (SIIFDGKPYYQFIYT; Immunogenic fragment) [compound 130]”, the SFC/donor stood at 55 SFC/donor and the “% responder” value was found to be 5%.

Consider “96 (LPDFIRNVLHKNGQK; Immunogenic fragment) [compound 96]”, for which the SFC/donor is reported as 5 SFC/donor and the “% responder” value turned out to be 10%.

In the case of “52 (EIIRRFEAKGFKLVA; Immunogenic fragment) [compound 52]”, the SFC/donor was found to be 40 SFC/donor and the “% responder” value is 5%.

In the case of “125 (FFRSGSIIPIQGPQN; Immunogenic fragment) [compound 125]”, the SFC/donor turned out to be 5 SFC/donor and the “% responder” value is 5%.

For “57 (WEGLNAVKTGRVMLG; Immunogenic fragment) [compound 57]”, the SFC/donor stood at 5 SFC/donor and the “% responder” value is recorded as 5%.

Regarding “YPRKYAFALPKDSQY (Immunogenic fragment) [Peptide 187, fragment of A0023 Der f]”, the SFC/donor was 25 SFC/donor and the “% responder” value was determined as 10%.

Consider “114 (YQLGAFYSFARNHND; Immunogenic fragment) [compound 114]”, for which the SFC/donor is on record as 35 SFC/donor and the “% responder” value turned out to be 15%.

As to “LTMLLDWRNLYPRKY (Immunogenic fragment) [Peptide 185, fragment of A0023 Der f]”, the SFC/donor was 15 SFC/donor and the “% responder” value was found to be 5%.

As to “YITFTEPFMINQLAA (Immunogenic fragment) [Peptide 180, fragment of A0023 Der f/p]”, the SFC/donor is on record as 29 SFC/donor and the “% responder” value is reported as 10%.

With “46 (FNYLPVDVQEELRNT; Immunogenic fragment) [compound 46]”, the SFC/donor is given as 7 SFC/donor and the “% responder” value is on record as 5%.

With “145 (PPKPELLVIDTELGR; Immunogenic fragment) [compound 145]”, the SFC/donor amounted to 228 SFC/donor and the “% responder” value came to 30%.

For “59 (GTEKQHVAFNYAKML; Immunogenic fragment) [compound 59]”, the SFC/donor was 80 SFC/donor and the “% responder” value came out at 5%.

As to “62 (RHIINESYKKLLPKS; Immunogenic fragment) [compound 62]”, the SFC/donor is reported as 4 SFC/donor and the “% responder” value turned out to be 5%.

Consider “99 (AEYHKTIAFDGAWLD; Immunogenic fragment) [compound 99]”, for which the SFC/donor is reported as 24 SFC/donor and the “% responder” value is recorded as 15%.

With “61 (AMLQCRHVISESYRK; Immunogenic fragment) [compound 61]”, the SFC/donor turned out to be 5 SFC/donor and the “% responder” value is given as 5%.

Take “134 (TNNMLIIQTKLSIFN; Immunogenic fragment) [compound 134]”: the SFC/donor is 4 SFC/donor and the “% responder” value was determined as 5%.

As to “146 (LLVIDTELGRLGMQI; Immunogenic fragment) [compound 146]”, the SFC/donor came to 54 SFC/donor and the “% responder” value amounted to 20%.

For the substance “133 (QFIYTTNNMLIIQTK; Immunogenic fragment) [compound 133]”, the SFC/donor is 47 SFC/donor and the “% responder” value is 5%.

On to “151 (FVYAKLRGAFSESTA; Immunogenic fragment) [compound 151]”, for which the SFC/donor was found to be 9 SFC/donor and the “% responder” value stood at 5%.

In the case of “67 (LMVHRRLLHDDYFGV; Immunogenic fragment) [compound 67]”, the SFC/donor is 2 SFC/donor and the “% responder” value came out at 5%.

In the case of “136 (DKSKKIHYQFEWKFN; Immunogenic fragment) [compound 136]”, the SFC/donor amounted to 2 SFC/donor and the “% responder” value amounted to 5%.

In the case of “78 (ELTLGANQPISSLKN; Immunogenic fragment) [compound 78]”, the SFC/donor turned out to be 6 SFC/donor and the “% responder” value amounted to 5%.

As to “137 (HDNTELMKTKDFLLI; Immunogenic fragment) [compound 137]”, the SFC/donor was 41 SFC/donor and the “% responder” value was found to be 10%.

As for “123 (YDDIDYVFVRGGSII; Immunogenic fragment) [compound 123]”, the SFC/donor was 149 SFC/donor and the “% responder” value is on record as 30%.

Consider “144 (RYHKMHLFGEMTMNI; Immunogenic fragment) [compound 144]”, for which the SFC/donor is reported as 10 SFC/donor and the “% responder” value worked out at 10%.

Turning to “152 (LRGAFSESTAVYPSA; Immunogenic fragment) [compound 152]”, the SFC/donor was found to be 5 SFC/donor and the “% responder” value is listed as 5%.

As for “128 (YQTNQSIIILEILGI; Immunogenic fragment) [compound 128]”, the SFC/donor is 10 SFC/donor and the “% responder” value is reported as 10%.

On to “121 (DIETQFMWGDSMLIA; Immunogenic fragment) [compound 121]”, for which the SFC/donor is on record as 8 SFC/donor and the “% responder” value stood at 5%.

On to “55 (KFMMASEDLLKKHYA; Immunogenic fragment) [compound 55]”, for which the SFC/donor turned out to be 5 SFC/donor and the “% responder” value was 5%.

Regarding “108 (NKRPFIISRATAPGH; Immunogenic fragment) [compound 108]”, the SFC/donor amounted to 146 SFC/donor and the “% responder” value worked out at 5%.

As for “147 (LGMQICFDMIFKTPG; Immunogenic fragment) [compound 147]”, the SFC/donor is on record as 28 SFC/donor and the “% responder” value turned out to be 20%.

For the substance “48 (EQYISGVILFDETVY; Immunogenic fragment) [compound 48]”, the SFC/donor stood at 326 SFC/donor and the “% responder” value was 20%.

Turning to “92 (GPKPEQVVQQYHNLI; Immunogenic fragment) [compound 92]”, the SFC/donor turned out to be 1 SFC/donor and the “% responder” value worked out at 5%.
